Measured values taken from the PolyMetriX glass transition set.
± gives the standard deviation of the reports.

| glass transition temperature [°C] | Structure (SMILES) |
| --- | --- |
| 207.00 | *Oc1ccc(C2(c3ccc(OC(=O)CCCC(*)=O)cc3)c3ccccc3-c3ccccc32)cc1 (repeat unit) |
| 230.00 | *Oc1ccc(NC(=O)c2ccc(Oc3ccc(C(=O)Nc4ccc(Oc5ccc(C6(c7ccc(*)cc7)C7CC8CC(C7)CC6C8)cc5)cc4)cc3)cc2)cc1 (repeat unit) |
| 64.00 | *CC(*)C(=O)Oc1c(F)c(F)c(F)c(F)c1F (repeat unit) |
| 272.00 | *C(=O)c1ccc2c(c1)C(=O)N(c1ccc(Oc3c(C)cc(C(c4cc(C)c(Oc5ccc(N6C(=O)c7ccc(*)cc7C6=O)cc5)c(C)c4)c4cccc5ccccc45)cc3C)cc1)C2=O (repeat unit) |
| -3.00 | *CC(*)c1ccc(OCCOCCOC(C)=O)cc1 (repeat unit) |
| 162.00 | *Oc1ccc(C(C)(C)c2ccc(Oc3ccc(C(=O)c4ccc(Oc5ccc(C(=O)c6ccc(*)cc6)cc5)cc4)cc3)cc2)cc1 (repeat unit) |
| 268.00 | *C(=O)Nc1ccc(Cc2ccc(NC(=O)c3ccc4c(c3)C(=O)N(c3ccc(/N=N/c5ccc(C)cc5)c(N5C(=O)c6ccc(*)cc6C5=O)c3)C4=O)cc2)cc1 (repeat unit) |
| 249.50 ± 18 | *c1ccc(Oc2ccc(C(c3ccc(Oc4ccc(N5C(=O)c6ccc(-c7ccc8c(c7)C(=O)N(*)C8=O)cc6C5=O)cc4)cc3)(C(F)(F)F)C(F)(F)F)cc2)cc1 (repeat unit) |
| 66.00 | *CC(C)(C)COC(=O)NC(=O)c1cccc(C(=O)NC(=O)O*)c1 (repeat unit) |
| 49.00 | *C(=O)OCCCCCCCCCCCOC(=O)c1ccc(N2C(=O)c3ccc(*)cc3C2=O)cc1 (repeat unit) |
| 91.50 | *CCCCCCCCCCN1C(=O)c2ccc(Oc3ccc4c(c3)C(=O)N(*)C4=O)cc2C1=O (repeat unit) |
| 229.00 | *C(=O)c1ccc2c(c1)C(=O)N(c1ccc(C(=O)Nc3ccc(Oc4ccc(NC(=O)c5ccc(NC(=O)Nc6ccc(Cc7ccc(NC(=O)Nc8ccc(C(=O)Nc9ccc(Oc%10ccc(NC(=O)c%11ccc(N%12C(=O)c%13ccc(*)cc%13C%12=O)cc%11)cc%10)cc9)cc8)cc7)cc6)cc5)cc4)cc3)cc1)C2=O (repeat unit) |
| 64.00 | *CC(CCCC)COC(=O)NC(=O)c1cccc(C(=O)NC(=O)O*)c1 (repeat unit) |
| 205.00 | *Oc1ccc(S(=O)(=O)c2ccc(Oc3ccc(C(=O)c4ccc(*)cc4)cc3)cc2)cc1 (repeat unit) |
| 106.00 | *Cc1cccc(COC(=O)Nc2ccc(Cc3ccc(NC(=O)O*)cc3)cc2)c1 (repeat unit) |
| 65.00 | *CCCS(=O)(=O)CCCCS(=O)(=O)CCCOC(=O)c1cccc(C(=O)O*)c1 (repeat unit) |
| 37.00 | *c1cc(CCCCCCOC(=O)COC)c(*)s1 (repeat unit) |
| 84.50 | *CC1CCC(COC(=O)c2ccc(C(=O)O*)cc2)CC1 (repeat unit) |
| 228.00 | *c1ccc(Oc2ccc(C(C)(C)c3ccc(Oc4ccc(-c5nc(*)nc(-c6ccccc6)n5)cc4)cc3)cc2)cc1 (repeat unit) |

| glass transition temperature [°C] | Structure (SMILES) |
| --- | --- |
| 334.00 | *c1ccc(Oc2ccc(C3(c4ccc(Oc5ccc(-c6nnc(*)c7c(-c8ccccc8)c(-c8ccc9ccccc9c8)c(-c8ccc9ccccc9c8)c(-c8ccccc8)c67)cc5)cc4)c4ccccc4-c4ccccc43)cc2)cc1 (repeat unit) |
| 94.30 | *Oc1ccc(OC(=O)c2ccc(OCCCCCCCCCCCCOc3ccc(C(*)=O)cc3)cc2)cc1/C=C/c1ccncc1 (repeat unit) |
| 23.00 | *Oc1ccc(CC(NC(=O)Cc2ccc(OC(=O)CCCCCCCCC(*)=O)cc2)C(=O)OCCCCCC)cc1 (repeat unit) |
| 89.00 | *CC1CCC(CNC(=O)CCCCCCCCC(=O)N*)CC1 (repeat unit) |
| 32.00 | *CC(O)COC(=O)/C=C/C(=O)Oc1ccc(C(C)(C)c2ccc(O*)cc2)cc1 (repeat unit) |
| 80.00 | *Oc1ccc(C(C)(C)c2ccc(OC(*)=O)c(C(C)C)c2)cc1C(C)C (repeat unit) |
| 103.00 | *CCCCCCCCCCN1C(=O)c2ccc(-c3ccc(-c4ccc5c(c4)C(=O)N(*)C5=O)cc3)cc2C1=O (repeat unit) |
| 74.00 | *CC(*)c1ccc(C(=O)OCCN(CC)CC)cc1 (repeat unit) |
| 210.50 | *Oc1ccc(S(=O)(=O)c2ccc(Oc3ccc(C(C)(C)c4ccc(*)cc4)cc3)cc2N)c(N)c1 (repeat unit) |
| 50.00 | *CC(*)(C)C(=O)OCCCCCCOc1ccc(C(=O)Oc2ccc(/N=N/c3ccc(Cl)cc3)c3ccccc23)cc1 (repeat unit) |
| 145.00 | *C(=O)Nc1ccc(S(=O)(=O)c2ccc(N3C(=O)CC(N4C(=O)c5ccc(*)cc5C4=O)C3=O)cc2)cc1 (repeat unit) |
| 242.00 | *Oc1ccc(C2(c3ccc(Oc4ccc(C(=O)C(=O)c5ccc(*)cc5)cc4)cc3)c3ccccc3-c3ccccc32)cc1 (repeat unit) |
| 83.50 | *CCOCCOCCOc1ccc(/C=C/c2ccc(/C=C/c3ccc(O*)c4ccccc34)cc2)c2ccccc12 (repeat unit) |
| 152.00 | *Oc1ccc(Oc2ccc(C(=O)c3ccc(C(=O)c4ccc(*)cc4)cc3)cc2)cc1 (repeat unit) |
| 232.00 | *N/C(C#N)=C(\C#N)NC(=O)c1ccc(C(*)=O)cc1 (repeat unit) |
| 90.00 | *CC(*)c1ccc(C(=O)OCC(C)C)cc1 (repeat unit) |
| -68.00 | *O[Si](C)(C)O[Si](C)(C)O[Si](C)(C)O[Si](C)(C)O[Si](C)(C)O[Si](C)(C)Oc1c(*)c2ccccc2c2ccccc12 (repeat unit) |
| 281.00 | *C(=O)Nc1ccc(Oc2ccc(NC(=O)c3ccc4c(c3)C(=O)N(c3ccc(S(=O)(=O)c5ccc(N6C(=O)c7ccc(*)cc7C6=O)cc5)cc3)C4=O)cc2)cc1 (repeat unit) |

| Structure (SMILES) | glass transition temperature [°C] |
| --- | --- |
| *CCCCCCCCCCOc1ccc(/C=C/c2ccc(OCCCCCCCCCCOP(=O)(O*)OCCCCCCCCCCOc3ccc(/N=N/c4ccc(OC)cc4)cc3)cc2)cc1 (repeat unit) | 58.00 |
| *C[Si](*)(C)c1ccccc1 (repeat unit) | 28.00 |
| *CC(*)c1ccc(C(C)(O)CCC)cc1 (repeat unit) | 135.00 |
| *CCCCCCOC(=O)C(CCCCCCCCCCP(=O)(OCC)OCC)C(=O)OCCCCCCOc1ccc(-n2on2-c2ccc(O*)cc2)cc1 (repeat unit) | 9.00 |
| *CC(COCCOCCOC)O* (repeat unit) | -57.00 |
| *CC(*)C(=O)OCCSCC (repeat unit) | -71.00 |
| *C(F)C(*)C(F)(F)F (repeat unit) | 87.00 |
| *CC(*)N1CCCC1=S (repeat unit) | 80.00 |
| *CCCP(=O)(CCCNC(=O)CCCCC(=O)N*)c1ccccc1 (repeat unit) | 55.00 |
| *OP(=O)(Oc1cccc2c(*)cccc12)OC1CCCCC1 (repeat unit) | 134.00 |
| *CCCCCCCC(=O)N* (repeat unit) | 37.00 |
